The source of these data is PMC6178282, “Comparative cell biological study of in vitro antitumor and antimetastatic activity on melanoma cells of GnRH-III-containing conjugates modified with short-chain fatty acids” (Beilstein Journal of Organic Chemistry, 2018).

The test has as its system A2058 melanoma cells. Kind of test: Morphometry analysis by HoloMonitor M4 holographic microscopy. As to conditions: fold change during treatment normalized to control cells, average ± SD, 50 cells/group, 180 consecutive frames. In kind it is cell-based, human. The procedure: Holographic microscopic measurements were also performed to visualize the morphological changes induced by the conjugates and Dau. This novel technique provided several morphological parameters (e.g., surface area, optical thickness, eccentricity etc.) that allowed understanding of the results of impedance-based adhesion measurement. Holographic images were taken before and after the 3-hour treatment of A2058 cells with the compounds. The change in the morphological parameters shown in Table S1 in Supporting Information File 2 was calculated from a fold change during 3 h long treatment and this value was normalized to that of the control cells. The adhesion inducer effects of Dau and GnRH-III(Dau=Aoa) detected by the impedimetric assay were reflected in the morphometry analysis.
The experimental set up we used for the morphometry analysis can be also found in [6]. The HolomonitorTM M4 microscope (Phase Holographic Imaging AB, Lund, Sweden) was used for imaging and tracking the morphological changes of A2058 cells induced by the conjugates and Dau. This technique is dedicated to analyzing the morphology and movement of adherent cells by recording 3D, holographic phase contrast images and tracking them over a given time period. The principle behind this method is the detection of the phase shift of the probing laser light transmitting or reflecting through a cell sample and comparison to the reference light […]
A2058 cells were seeded (2.5 × 10^5 cells) in a petri dish (diameter: 35 mm) and allowed to adhere for 24 h. After automatic calibration of the background and microscope objective (20×), one field of each sample was focused on by the digital autofocus feature. The cells were then treated with the test compounds at the final concentrations of 10−7–10−5 mol/L, or with an equivalent volume of culture medium, and captured every 30 sec for 2 h.
For the evaluation, ca. 50 cells per time-lapse sequence were identified and selected by the minimum error histogram-based threshold algorithm of the HStudioTM M4 2.7.1 software (Phase Holographic Imaging AB, Lund, Sweden). The morphological changes were automatically analyzed over time by selecting and tracking individual cells.
For the morphometry analysis, different basic and complex morphological parameters were […]
The (i) area (surface area of the image occupied by a cell) and (ii) thickness (average spatial cell thickness) were grouped as basic metrics, while the more complex parameters relating to cell shape were: (iii) the eccentricity (how elongated a cell is comparing to a circle), (iv) the hull convexity (how different the 3D shape of a cell is compared to a perfect convex shape) and (v) the irregularity (how different the circumference of a cell is compared to the circumference of a perfect circle).
Table S1: Morphological changes of A2058 melanoma cells induced by the conjugates Compounds/ Area Thickness Eccentricity Hull convexity Irregularity concentrations [%] [%] [%] [%] [%]
[4Lys(Ac)] -GnRH-III(Dau=Aoa )
[4Lys(Bu)]-GnRH-III(Dau=Aoa)
Area (μm2) – surface area of the image that is occupied by the cell; Thickness (μm) – average thickness of the cell; Eccentricity – how elongated a cell comparing to a circle shape; Hull convexity – how different the 3D shape of a cell from the perfect convex shape; Irregularity – how different the circumference of a cell from the circumference of a perfect circle
Data represent averages and ±SD values calculated for 50 cells/group in 180 consecutive frames.
The presented data were calculated by HoloStudioTM M4 2.5 and analyzed by Origin Pro 2016. The levels of significance are shown as follows: *: p<0.05; **: p<0.01; ***: p<0.001

The structures appear in SMILES notation.

Consider `COc1cccc2c1C(=O)c1c(O)c3c(c(O)c1C2=O)C[C@@](O)(C(C)=O)C[C@@H]3O[C@H]1C[C@H](N)[C@H](O)[C@H](C)O1` [daunorubicin], for which, under “10^-5 M”, the Area is 99.1 ± 4.1%, the Eccentricity is on record as 104.4 ± 1.84%, the Hull convexity was 101.2 ± 0.29% and the Irregularity is reported as 102.6 ± 2.54%. Where the note is “10^-5 M”, this compound yielded a Thickness of 104.5 ± 2.12%. For the setting “10^-6 M”, the Eccentricity turned out to be 96.6 ± 1.83%, the Hull convexity worked out at 100.1 ± 0.23% and the Thickness stood at 95.4 ± 1.87%. Further, the Area (10^-6 M, listed as Dau) amounted to 124.1%. Where the note is “10^-7 M”, this compound registered an Area of 94.5 ± 3.72%, an Eccentricity of 95.2 ± 2.25%, a Hull convexity of 103.4 ± 0.29% and an Irregularity of 94.5 ± 2.41%. The compound further gave a Thickness (10^-7 M) of 101.8 ± 1.95%.
